The record followed here is patent publication US20080287490A1, “Bis-pyridino containing compounds for the use in the treatment of CNS pathologies” (UNIVERSITY OF KENTUCKY RESEARCH FOUNDATION, priority 2005, published 2008).

Data set [1] has as its target T1, Rat Striatal Nicotinic Acetylcholine Receptors ([^3H]nicotine binding sites) (Rattus norvegicus, UniProt P09483+P12390).
T1 construct: Striata from two rats were dissected, pooled, and homogenized; from tissue; host or cells: rat striatum membranes
The data set can be described thus: biochemical. The note with it: read-out: Ki, specific binding of [^3H]-nicotine. The protocol: Striata from two rats were dissected, pooled, and homogenized with a Tekmar polytron in 10 volumes of ice-cold modified Krebs-HEPES buffer (20 mM HEPES, 118 mM NaCl, 4.8 mM KCl, 2.5 mM CaCl2, 1.2 mM MgSO4, adjusted to pH 7.5). The homogenates were incubated at 37° C. for five minutes and centrifuged at 15,000 g for 20 minutes. The pellet was resuspended in ten volumes of ice-cold MilliQ water, incubated for five minutes at 37° C., and centrifuged at 15,000 g for 20 minutes The second pellet was then resuspended in ten volumes of fresh ice-cold 10% Krebs-HEPES buffer, incubated at 37° C., and centrifuged at 15,000 g for 20 minutes. The latter sequence of resuspension, incubation, and centrifugation was repeated. The pellet was frozen under fresh 10% Krebs-HEPES buffer and stored at −40° C. until assay. Upon assay, the pellet was resuspended in the Krebs-HEPES buffer, incubated at 37° C. for five minutes, and centrifuged at 15,000 g for 20 minutes. The final pellet was resuspended in 3.6 ml ice-cold MilliQ water which provided for approximately 200 μg protein per 100 μl aliquot. Competition assays were performed in duplicate in a final volume of 200 μl Krebs-HEPES buffer containing […] Tris buffer (pH 7.5 at 4° C.). […] After a 90 minute incubation at 4° C., reactions were terminated by dilution of the samples with 3 ml of ice-cold Krebs-HEPES buffer followed immediately by filtration through Whatman GF/B glass fiber filters (presoaked in 0.5% polyethyleneimine) using a Brandel Cell Harvester. Filters were rinsed three times with 3 ml of ice-cold Krebs-HEPES buffer, transferred to scintillation vials, and 5 ml scintillation cocktail (Research Products International Corp., Mt. Prospect, Ill.) added. […] Binding parameters were determined using the weighted, least squares non-linear regression.

For data set [2], the target named is T2, α7-type neuronal nicotinic acetylcholine receptors (Rattus norvegicus, UniProt Q05941).
T2 construct: Rat brain was dissected into the whole brain tissue without cortex, striatum and cerebellum; from tissue; host or cells: rat brain (without cortex, striatum, cerebellum) membranes
T2 sequence (Q05941 23-502): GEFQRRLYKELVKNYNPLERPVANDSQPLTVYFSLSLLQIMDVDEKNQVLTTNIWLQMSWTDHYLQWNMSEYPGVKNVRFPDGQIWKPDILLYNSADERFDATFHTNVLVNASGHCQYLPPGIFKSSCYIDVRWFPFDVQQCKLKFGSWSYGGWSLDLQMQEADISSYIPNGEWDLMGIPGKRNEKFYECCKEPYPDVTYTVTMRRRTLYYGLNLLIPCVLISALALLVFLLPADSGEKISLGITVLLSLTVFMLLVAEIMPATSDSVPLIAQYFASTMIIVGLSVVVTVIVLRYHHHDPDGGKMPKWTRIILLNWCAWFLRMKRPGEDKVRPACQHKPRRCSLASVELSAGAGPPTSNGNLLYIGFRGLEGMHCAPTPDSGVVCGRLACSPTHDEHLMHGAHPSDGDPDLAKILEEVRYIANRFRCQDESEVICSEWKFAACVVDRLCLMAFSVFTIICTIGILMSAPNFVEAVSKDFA
It is filed as binding. The settings on record: read-out: Ki, [^3H]MLA binding. How it is done:
Rat brain was dissected into the whole brain tissue without cortex, striatum and cerebellum and was frozen in liquid nitrogen and stored at −70° C. until use.
The brain tissue was homogenized with a Tekmar Polytron (setting 40) in 20 volumes of ice-cold hypotonic buffer (2 mM HEPES, 14.4 mM NaCl, 0.15 mM KCl, 0.2 mM CaCl2 and 0.1 mM MgSO4, pH=7.5). The homogenate was incubated at 37° C. for ten minutes and centrifuged at 25,000×g for 15 minutes at […] The pellet was washed three times more by resuspension in the 20 volumes of the same buffer and centrifugation at the above parameters. The final pellet was stored at −20° C. under 4.6 ml of the incubation buffer and was suspended just before the incubation with radioligand.
[^3H]MLA (25.4 Ci/mmol) was purchased from Tocris Cookson Ltd., Bristol, U.K. Binding was performed in duplicate, in a final volume of 250 μl of the incubation medium, containing 20 mM HEPES, 144 mM NaCl, 1.5 mM KCl, 2 mM CaCl2, 1 mM MgSO4 and 0.05% BSA, pH=7.5. Reaction was initiated by the addition of 100 μl of membrane suspension to the samples containing a desired concentration of test compounds and […] [^3H] MLA (final concentration) and incubated for 2 hours at room temperature. […] The binding reaction was terminated by dilution of samples with 3 ml of ice-cold incubation buffer followed by immediate filtration through presoaked in 0.5% polyethylenimine glass fiber filters (S&S, grade #32) using a Brandel harvester system. Filters were rinsed three times with 3 ml of ice-cold buffer, transferred to scintillation-vials and 4 ml of scintillation cocktail was added. Protein was measured using the Bradford dye-binding procedure with bovine serum albumin as the standard.

For data set [3], the target named is nAChR mediating nicotine-evoked [^3H]DA release (α3β2* receptor subtype). The format is cell-based, rat. The settings on record: read-out: IC50, S-(−)-nicotine-evoked [^3H]DA release. The protocol: Slices were rinsed with 15 mL of fresh buffer and incubated for an additional 30 minutes in fresh buffer containing 0.1 μM [^3H]DA (6 slices/3 ml). Subsequently, slices were rinsed with 15 ml of fresh buffer and transferred to a glass superfusion chamber.
Radioactivity in the superfusate and tissue samples was determined by liquid scintillation spectroscopy. […] Basal [^3H]outflow was calculated from the average of the tritium collected in the two five minute samples just before addition of the bis-alkyl pyridino analog. […] [^3H]Overflow was calculated by subtracting the [^3H]outflow during an equivalent period of prestimulation from the values in samples collected during and after drug exposure. Inasmuch as the radiolabelled compounds were not separated and identified, the tritium collected in superfusate is referred to as either [^3H]outflow or [^3H]overflow, rather than as [^3H]DA.

Data set [4] relates to nAChR subtypes mediating nicotine-evoked [^3H]-dopamine overflow. The settings on record: for IC50: read-out: Nicotine-evoked [^3H]DA Overflow IC50.
Procedure: [^3H]-Dopamine overflow from superfused striatal slices. […] Striatal coronal slices (500 μm, 4-6 mg) were obtained and incubated for 30 minutes in Krebs' buffer (in mM: 118 NaCl, 4.7 KCl, 1.2 MgCl2, 1 NaH2PO4, 1.3 CaCl2, 11.1 glucose, 25 NaHCO3, 0.11 L-ascorbic acid and 0.004 disodium EDTA, pH 7.4, saturated with 95% O2/5% CO2) in a metabolic shaker at 34° C. Slices were incubated with 0.1 μM (final concentration) of [^3H]-dopamine during the latter 30 minutes of the 60-minute incubation period. Each slice was transferred to a glass superfusion chamber maintained at 34° C. and superfused (1 ml/min) with Krebs' buffer containing nomifensine (10 μM) and pargyline (10 μM) to inhibit [^3H]-dopamine reuptake after release into the extracellular space, ensuring that [^3H]-overflow primarily represented [^3H]-dopamine. Sample collection (5-minute; 5 mL) began after 60 minutes of superfusion. […] At the end of the experiment, each slice was solubilized, and the [^3H]-content of the tissue determined. Release during each minute was normalized for total tissue [^3H]-content. Analog-induced intrinsic activity and inhibitory activity were determined using slices from the same rat (repeated-measures design).
The amount of [^3H] in each sample was calculated by dividing the total [^3H] collected in each sample by the total in the tissue at the time of sample collection (defined as fractional release). […] Data were analyzed by weighted, least squares regression analysis of the sigmoidal concentration-effect curves to obtain EC50 and IC50 values.
Striatal slices (500 μm, 4-6 mg) were incubated for 30 minutes in Krebs' buffer (in mM: 118 NaCl, 4.7 KCl, 1.2 MgCl2, 1 NaH2PO4, 1.3 CaCl2, 11.1 glucose, 25 NaHCO3, 0.11 L-ascorbic acid and 0.004 disodium EDTA, pH 7.4, saturated with 95% O2/5% CO2) in a metabolic shaker at 34° C. Slices were incubated with 0.1 μM (final concentration) [^3H]DA during the latter 30 minutes of the 60-minute incubation period. Each slice was transferred to a glass superfusion chamber maintained at 34° C. and superfused (1 ml/min) with Krebs' buffer containing nomifensine (10 μM) and pargyline (10 μM) to inhibit [^3H]DA reuptake and metabolism, respectively, after release into the extracellular space, ensuring that [^3H]overflow primarily represents [^3H]DA. Sample collection (5-minute; 5 ml) began after 60 minutes of superfusion. […] Thus, the ability of these analogs to elicit intrinsic activity (evoke [^3H]DA overflow) was determined. At the end of the experiment, each slice was solubilized and [^3H]content of the tissue determined. Release during each minute was normalized for total [^3H]content of the slice. Analog-induced intrinsic activity and inhibitory activity were determined using slices from the same rat (repeated-measures design).
Fractional release was calculated by dividing the total tritium collected in each sample by the total tritium in the tissue at the time of sample collection. […] Typically, data were analyzed by weighted, least squares regression analysis of sigmoidal concentration-effect curves to obtain EC50 and IC50 values.
For data set [5], the target named is T2, α7-type neuronal nicotinic acetylcholine receptors. Description: biochemical. The settings on record: read-out: Ki, [^3H]MLA binding.
Data set [6] addresses blood-brain barrier choline transporter. It is filed as in vivo, rat. The protocol:
Blood-brain barrier choline transporter affinity assays. Quaternary ammonium analogs were evaluated for their ability to inhibit [^3H]-choline uptake into brain providing an indication of the ability of these analogs to interact with the choline transporter. These assays were conducted using the in situ rat brain perfusion method of Takasato, et al., Am. J. Physiol. 1984, 247, 484, as modified by Allen and Smith, J. Neurochem., 2001, 76, 1032. […] Ki values were compared by ANOVA followed by Bonferoni's multiple comparisons test to determine if an analog inhibits [^3H]-choline uptake.
Analog affinity for, and transport by, the blood-brain barrier choline transporter.

The target in the next data set is α7* nAChRs (Rattus norvegicus, UniProt Q05941). The settings on record: read-out: [^3H]MLA Binding Ki; Table 4; mean (95% confidence interval).
Chain of α7* nAChRs (Q05941 23-502): as above
The target of a further data set is α4β2* nAChRs (Rattus norvegicus, UniProt P09483+P12390).
Chain of α4β2* nAChRs (P09483 31-630): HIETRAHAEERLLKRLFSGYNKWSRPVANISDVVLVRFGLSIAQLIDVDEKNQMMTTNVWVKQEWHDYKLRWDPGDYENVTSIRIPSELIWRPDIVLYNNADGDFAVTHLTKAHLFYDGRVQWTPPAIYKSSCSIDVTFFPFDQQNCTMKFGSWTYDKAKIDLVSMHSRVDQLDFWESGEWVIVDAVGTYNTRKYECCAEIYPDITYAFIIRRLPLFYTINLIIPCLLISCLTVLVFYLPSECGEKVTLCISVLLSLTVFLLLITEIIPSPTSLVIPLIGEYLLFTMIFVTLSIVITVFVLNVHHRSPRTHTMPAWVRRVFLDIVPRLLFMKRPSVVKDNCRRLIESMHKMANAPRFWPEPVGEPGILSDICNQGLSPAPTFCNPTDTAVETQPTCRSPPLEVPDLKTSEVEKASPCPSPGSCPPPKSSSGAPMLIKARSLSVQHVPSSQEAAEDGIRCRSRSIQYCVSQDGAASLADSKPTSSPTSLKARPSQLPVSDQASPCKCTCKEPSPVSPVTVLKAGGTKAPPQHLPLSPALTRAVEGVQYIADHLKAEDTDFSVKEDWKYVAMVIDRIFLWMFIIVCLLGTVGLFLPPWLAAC
Chain of α4β2* nAChRs (P12390 25-500): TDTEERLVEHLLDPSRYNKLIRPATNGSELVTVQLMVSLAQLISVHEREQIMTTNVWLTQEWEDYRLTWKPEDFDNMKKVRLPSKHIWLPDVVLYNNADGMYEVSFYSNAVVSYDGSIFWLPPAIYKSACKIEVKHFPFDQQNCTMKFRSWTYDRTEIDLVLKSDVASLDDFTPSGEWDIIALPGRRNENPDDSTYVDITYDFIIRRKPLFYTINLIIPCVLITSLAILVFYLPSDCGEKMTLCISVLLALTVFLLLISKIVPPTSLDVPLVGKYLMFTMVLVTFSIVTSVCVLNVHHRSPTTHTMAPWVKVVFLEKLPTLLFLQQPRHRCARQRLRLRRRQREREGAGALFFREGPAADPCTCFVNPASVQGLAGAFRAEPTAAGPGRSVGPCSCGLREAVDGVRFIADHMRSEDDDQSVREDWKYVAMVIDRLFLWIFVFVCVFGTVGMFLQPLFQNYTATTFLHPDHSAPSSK
Setting [7] is: rat striatal membranes, 3 nM [^3H]-nicotine.
The mark [8] stands for this setting: rat brain membranes, […] [^3H]-MLA.
[9] abbreviates: rat striatal slices, nicotine 10 μM.
Setting [10] is: rat brain membranes, 2.5 nM [^3H]-MLA.
The mark [11] stands for this setting: read-out: apparent Ki, inhibition of [^3H]-choline uptake into brain.
The mark [12] stands for this setting: Table 8, single inhibitor concentration 10 or 250 μM, mean (standard error), read-out: Ki, affinity for the blood brain barrier choline transporter.
Where [13] appears, read: 500 μM choline in perfusion fluid.

Where two headings read alike, the source gives them in different places.

As a reminder, the IC50 is the concentration at which inhibition is half-maximal.

T1 sequence (P09483 31-630): as the sequence (P09483 31-630) above
T1 sequence (P12390 25-500): as the sequence (P12390 25-500) above
Procedure for α4β2* nAChRs: (§1) Whole brain, excluding cortex and cerebellum, was homogenized in 20 ml of ice-cold buffer, containing (in mM): 2 HEPES, 11.8 NaCl, 0.48 KCl, 0.25 CaCl2 and 0.12 MgSO4, pH 7.5. Homogenate was centrifuged (25,000 g, 15 minutes, 4° C.). Pellets were resuspended in 20 ml of buffer and incubated at 37° C., for ten minutes, cooled to 4° C. and centrifuged (25,000 g, 15 minutes, 4° C.). Pellets were resuspended and centrifuged using the same conditions. Final pellets were stored in assay buffer, containing (in mM): 20 HEPES, 118 NaCl, 4.8 KCl, 2.5 CaCl2, and 1.2 MgSO4) pH 7.5 at −70° C. Upon use, final pellets were resuspended in ˜20 ml assay buffer. […] Control was in the absence of analog. […] Incubations proceeded for 60 minutes at room temperature using 96-well plates and were terminated by harvesting on Unifilter-96 GF/B filter plates presoaked in 0.5% polyethylenimine, using a Packard FilterMate harvester.
(§2) After washing five times with 350 μl ice-cold assay buffer, filter plates were dried (60 minutes, 49° C.), bottom-sealed, and filled with Packard's MicroScint 20 cocktail (40 μl/well). After 60 minutes, filter plates were top-sealed, and radioactivity determined using a Packard TopCount. Protein concentrations were determined using bovine serum albumin as the standard.
(§3) Whole brain was homogenized in 20 ml of ice-cold buffer (in mM: 2 HEPES, 11.8 NaCl, 0.48 KCl, 0.25 CaCl2, and 0.12 MgSO4, pH 7.5). Homogenates were centrifuged (25,000 g, 15 minutes, 4° C.). Pellets were resuspended in 20 ml of buffer and incubated at 37° C., for 10 minutes, cooled to 4° C. and centrifuged (25,000 g, 15 minutes, 4° C.). Pellets were resuspended and centrifuged again using the same conditions. Final pellets were stored at −70° C. in assay buffer (in mM: 20 HEPES, 118 NaCl, 4.8 KCl, 2.5 CaCl2, and 1.2 MgSO4, pH 7.5). Upon use, final pellets were resuspended in ˜20 ml assay buffer. […] Control was in the absence of analog. […] Incubation proceeded for 60 minutes at room temperature using 96-well plates and was terminated by harvesting on Unifilter-96 GF/B filter plates, presoaked in 0.5% polyethylenimine, using a Packard FiterMate harvester. After washing 5× with 350 μl ice-cold assay buffer, filter plates were dried (60 minutes, 49° C.), bottom-sealed, and filled with Packard's MicroScint 20 cocktail (40 μl/well). After 60 minutes, filter plates were top-sealed, and radioactivity determined. Protein concentration was determined using BSA as the standard.
Procedure for α7* nAChRs: as §1, §2, §3

Regarding “N,N′-Octane-1,8-diyl-bis-picolinium Diiodide [bPiOI]”, the Ki in [1] (setting [7]) and in data set [2] (setting [8]) was above 100 µM each time. Moreover, the IC50 in [3] (setting [9]) was determined as 0.01 µM; in data set [4] (Table 10, mean (standard error)), 0.01 µM.
Regarding “N,N′-Decane-1,10-diyl-bis-picolinium Diiodide [bPiDI]”, the Ki in [1] and in data set [2] was above 100 µM each time. Besides, the IC50 in data set [3] and in data set [4] was 0.03 µM in each case.
On to `c1ccc2c[n+](CCCCCCCCC[n+]3ccc4ccccc4c3)ccc2c1` [bIQNB, N,N′-Nonane-1,9-diyl-bis-isoquinolinium Dibromide], for which the Ki was above 100 µM in data set [1] (setting [7]) and 13.1 µM in [5] (setting [10]). For the same compound, in [3] (setting [9]), the IC50 came to 1.61 µM.
In the same order, the values of `c1ccc2c(c1)ccc[n+]2CCCCCCCCC[n+]1cccc2ccccc21` [bQNB, N,N′-Nonane-1,9-diyl-bis-quinolinium Dibromide] are 20.1 µM, 3.4 µM and 17.3 µM.
Regarding `CN1CCCC1c1ccc[n+](CCCCCCCCCC[n+]2cccc(C3CCCN3C)c2)c1` (stereo not shown) [bNDI, N,N′-Decane-1,10-diyl-bis-nicotinium Diiodide], the Ki in data set [1] (setting [7]) is 0.28 µM; in data set [5] (setting [10]), above 100 µM. In addition, in data set [3] (setting [9]), the IC50 is above 100 µM.
“N,N′-Hexane-1,6-diyl-bis-picolinium; Diiodide [bPiHxI]”: the Ki in data set [1] and in data set [2] was above 100 µM each time. The IC50 in data set [3] and in data set [4] was 1.66 µM throughout.
As for `CN1CCCC1c1ccc[n+](C)c1` (stereo not shown) [NMNI], the Ki in data set [6] (setting [11]) was above 1000 µM.
For the compound α-Bungarotoxin [reference compound], in [2], the Ki came out at 0.0286 ± 0.0054 µM.
With `CCCCCC[N+](C)(C)CCO` [N-n-Hexylcholine, reference compound], the Ki in data set [6] (setting [12]) was found to be 2.2 µM.
Regarding `c1ccc2c[n+](CCCCCCCC[n+]3ccc4ccccc4c3)ccc2c1` [bIQOI, N,N′-Octane-1,8-diyl-bis-isoquinolinium Diiodide], the results for the Ki in [1] (setting [7]) and in data set [5] (setting [10]) were above 100 µM and 8.55 µM, respectively. In addition, the IC50 in [3] (setting [9]) was found to be 51.9 µM.
With `c1ccc2c[n+](CCCCCC[n+]3ccc4ccccc4c3)ccc2c1` [bIQHxI, N,N′-Hexane-1,6-diyl-bis-isoquinolinium Diiodide], the Ki in data set [1] (setting [7]) stood at 17.9 µM; in data set [2] (setting [8]), 16 µM. Besides, the IC50 in data set [3] (setting [9]) is above 100 µM.
For the compound `CCCCCCCC[n+]1cccc([C@@H]2CCCN2C)c1.[I-]` [NONI], the Ki is above 100 µM in data set [2] (setting [8]); 49 µM in [6] (rat, in vivo, read-out: apparent Ki, inhibition of [^3H]-choline uptake into brain); 12 µM on α7* nAChRs. In addition, the IC50 is 0.62 µM in [3] (setting [9]) and 0.62 µM in [4] (Table 4, mean (95% confidence interval)). In addition, under setting [13], the “decrease of PA for [^3H]-NONI” value is recorded as around 25%. The “permeability-surface area product (PA) for [^3H]-NONI” value is on record as 1.24±0.5×10^−3 ml/s/g under setting [13] and 1.64±0.37×10^−3 ml/s/g (no inhibitors present, single time point). For the same compound, the “uptake (PA) of [^3H]-NONI” value (5 mM choline in perfusion fluid) was 7.55±3.30×10^−4 ml/s/g. Further, where the note is “rat brain, 0-60 seconds, absence of unlabeled NONI”, the “transfer coefficient value (Kin) for [^3H]-NONI uptake” value is recorded as 1.59±0.14×10^−3 ml/s/g. Moreover, the “inhibition of [^3H]-NONI brain uptake by unlabeled NONI” value (unlabeled NONI 250 μM in perfusion fluid, 45 seconds uptake) stood at 46%. For the same compound, the “mode of interaction with the high affinity [^3H]-nicotine binding site (Scatchard analyses)” value on α4β2* nAChRs (no change in Bmax) was “competitive manner”. Also, in data set [4], the “mode of interaction with nAChRs mediating nicotine-evoked dopamine release (Schild analysis)” value is “competitive manner”.
In the case of “N,N′-Undecane-1,11-diyl-bis-picolinium Dibromide [bPiUB]”, the Ki in [2] is above 100 µM. The IC50 in data set [3] and in [4] was 1.61 µM in each case.
On to `CCCCCCCC[N+](C)(C)CCO` [N-n-Octylcholine, reference compound], for which, in data set [6] (setting [12]), the Ki turned out to be 1.7 µM.
On to “N,N′-Nonane-1,9-diyl-bis-picolinium Dibromide [bPiNB]”, for which the Ki in data set [1] is 66.7 µM; in data set [2], above 100 µM; at α4β2* nAChRs (read-out: [^3H]Nicotine Binding Ki) it was 80 µM.
In the case of `c1ccc2c[n+](CCCCCCCCCCC[n+]3ccc4ccccc4c3)ccc2c1` [bIQUB, N,N′-Undecane-1,11-diyl-bis-isoquinolinium Dibromide], the Ki in data set [1] (setting [7]) is 9.02 µM; in data set [5] (setting [10]) it was 24.1 µM. In data set [3] (setting [9]), the IC50 came to 0.49 µM.
In the case of `c1ccc2c(c1)ccc[n+]2CCCCCC[n+]1cccc2ccccc21` [bQHxI, N,N′-Hexane-1,6-diyl-bis-quinolinium Diiodide], the Ki in [1] (setting [7]) was above 100 µM; in data set [2] (setting [8]) it was 13.3 µM. In [3] (setting [9]), the IC50 is above 100 µM.
For `CCCCCCCC[n+]1ccccc1` [N-n-Octylpyridinium iodide], the Ki in [6] (setting [12]) was found to be 32 µM.
Consider `CCCC[n+]1cccc(C2CCCN2C)c1` (stereo not shown) [NBNI], for which, in [6] (setting [11]), the Ki came out at 777 ± 588 µM.
Regarding `c1cc[n+](CCCCCCCCCCC[n+]2ccccc2)cc1` [bPUB, N,N′-Undecane-1,11′-diyl-bis-pyridinium Dibromide], the Ki in data set [1] (setting [7]) was determined as 14.4 µM; in data set [5], 50.2 µM. Also, the half-maximal inhibitory concentration (IC50) in data set [3] (setting [9]) was above 100 µM.
